Converted amounts (≈) assume the structure as drawn.
Assays:
[1] = pH 7
[2] = In vitro skin permeation (diffusion) study, open Franz diffusion cells, whole abdominal human skin; conditions: for Flux, IPM: steady state, IPM solution not saturated, human skin
physchem = test: physchem
Experimental: (§1) The experimental methods used for these determinations are described below.
The mixtures were placed in an ultrasonic bath for 10 min and then rotated on a mechanical spindle for 24 h and filtered. After rotation for 1 h the pH of the phosphate buffer mixtures was adjusted to 7.0. An aliquot of the filtrates was diluted with water or acetonitrile and analyzed by HPLC.

in vitro = conditions: human
[3] = Apparent partition coefficient (P) between octanol and pH 7.4 aqueous buffer at 21° C.; conditions: octanol / phosphate buffer
Experimental: as §1
The concentration of the compounds in the aqueous phase before and after partitioning was determined by HPLC analysis, and the partition coefficients determined.

[4] = isopropyl myristate, organic solvent or mixture
[5] = phosphate buffer, pH 7, aqueous buffer

| Compound | Flux, Buffer [1] [μg/cm^2 /h] | Flux, IPM ([2]; 200 mg/ml) [μg/cm^2 /h] | solubility at 24 h (physchem; [4]) [mg/mL] | solubility at 24 h (physchem; [5]) [mg/mL] | Papp (in vitro) [×10⁻⁶ cm/s] | Papp (in vitro; pH 7) [×10⁻⁶ cm/s] | logD [3] | Flux, IPM ([2]; 125 mg/ml) [μg/cm^2 /h] | Amount penetrated present in the receptor phase as the 6-monoester ([2]; receptor phase composition after human skin permeation) [%] |
| --- | --- | --- | --- | --- | --- | --- | --- | --- | --- |
| CCCCCC(=O)Oc1ccc2c3c1O[C@H]1[C@@H](OC(=O)CCCCC)C=C[C@H]4[C@@H](C2)N(C)CC[C@@]341 [3,6-Dihexanoyl-morphine, 3,6-dihexanoyl morphine] | 1.7 ± 0.2 | 11.7 ± 1.2 | > 200 | 0.02 (≈ 0.0415 mM) | > 0.0444 | 38.9 | > 4 | – | – |
| CCCCC(=O)Oc1ccc2c3c1O[C@H]1[C@@H](O)C=C[C@H]4[C@@H](C2)N(C)CC[C@@]341 [3-Valeryl-morphine] | – | 16.5 ± 2.7 | – | – | – | – | – | – | – |
| CCCCCC(=O)Oc1ccc2c3c1O[C@H]1[C@@H](O)C=C[C@H]4[C@@H](C2)N(C)CC[C@@]341 [3-Hexanoyl-morphine, 3-hexanoyl morphine] | 25.3 ± 4.2 | – | > 150 | 2.6 (≈ 6.78 mM) | > 0.0667 | 3.61 | 2.04 | 35.6 ± 12.0 | – |
| 3-Butoxy-morphlne | – | 8.3 ± 2.2 | – | – | – | – | – | – | – |
| CCC(=O)Oc1ccc2c3c1O[C@H]1[C@@H](O)C=C[C@H]4[C@@H](C2)N(C)CC[C@@]341 [3-Propionyl-morphine, 3-propionyl morphine] | – | – | 79 (≈ 231 mM) | 21 (≈ 61.5 mM) | – | – | 0.66 | – | – |
| CC(=O)Oc1ccc2c3c1O[C@H]1[C@@H](O)C=C[C@H]4[C@@H](C2)N(C)CC[C@@]341 [3-Acetyl-morphine] | – | 11.4 ± 1.8 | – | – | – | – | – | – | – |
| CC(C)C(=O)Oc1ccc2c3c1O[C@H]1[C@@H](O)C=C[C@H]4[C@@H](C2)N(C)CC[C@@]341 [3-Isobutyryl-morphine] | – | 27.0 ± 3.3 | – | – | – | – | – | – | – |
| CCC(=O)Oc1ccc2c3c1O[C@H]1[C@@H](OC(=O)CC)C=C[C@H]4[C@@H](C2)N(C)CC[C@@]341 [3,6-Dipropionyl-morphine, 3,6-dipropionyl morphine] | 2.5 ± 0.5 | – | 41 (≈ 103 mM) | 3.6 (≈ 9.06 mM) | – | 0.278 | 1.66 | – | ~50 |
| CC(C)C(=O)Oc1ccc2c3c1O[C@H]1[C@@H](OC(=O)C(C)C)C=C[C@H]4[C@@H](C2)N(C)CC[C@@]341 [3,6-Diisobutyryl-morphine, 3,6-diisobutyryl morphine] | – | – | 80 (≈ 188 mM) | 0.6 (≈ 1.41 mM) | – | – | 2.6 | – | – |

From US5908846A (priority 1993, dated 1999)
